Assay results taken from patent publication US4794118A, “1,4-benzodioxane derivatives” (Eisai Co., Ltd., priority 1985, dated 1988).

What was measured:
[1] = test system: arterial and venous systems; test: Effects on the arterial and venous systems in anesthetized open-chest dogs; type: in vivo, mongrel dogs; details: for Max. change in mean blood pressure at diastole, Aortic / Max. change in mean blood pressure at diastole, Pulmonary: anesthetized open-chest dogs
Procedure: Effects on the arterial and venous systems in anesthetized open-chest dogs
Mongrel dogs of either sex, weighing 12-16 kg were subjected to inhalation anesthesia with enflurane under artificial respiration. The dogs were subjected to thoracotomy through the fourth right intercostal wall and catheters were inserted into the thoracic aorta and right pulmonary artery. The aortic and pulmonary blood pressures were measured by means of cathether tip-type piezoelectric transducers.
Test compounds were cumulatively administered with intervals of 30 minutes either intravenously or intraduodenally through catheters placed in the left femoral vein and duodenum.

Acute toxicity in mice = details: mouse, in vivo
Procedure: Acute toxicity in mice was investigated with respect to 8-hydroxy-2-nitratomethyl-7-nitro-1,4-benzodioxane. […] A similar experiment was also conducted with an intravenous administration of NG.

coronary blood flow = test: Effects on the coronary blood flow in anesthetized open-chest dogs; type: in vivo, mongrel dogs; details: for Max. increase in coronary blood flow: anesthetized open-chest dogs
Procedure: Effects on the coronary blood flow in anesthetized open-chest dogs
Mongrel dogs of either sex weighing 9-14 kg were subjected to inhalation anesthesia with enflurane under artificial respiration. […] Test compounds were administered cumulatively at intervals of 10 minutes through a catheter inserted into the left femoral vein.

[2] = test system: spontaneously hypertensive rats (SHR); test: Hypotensive effects in spontaneously hypertensive rats (SHR) under anesthesia; type: in vivo, rat (SHR); details: anesthetized SHR
Procedure: Hypotensive effects in spontaneously hypertensive rats (SHR) under anesthesia
Male SHR of 20 weeks of age or older were anesthetized with sodium pentobarbital (40 mg/kg, i.p.). The carotid artery and jugular vein were cannulated. Blood pressure was recorded from the carotid artery on a polygraph via a pressure transducer. Test compounds were dissolved in a solution containing 0.9% NaCl and 1% Tween 80 and administered either intravenously into the jugular vein or intraduodenally through a cannula inserted into the duodenum.
As a representative of this invention, compound A (8-hydroxy-2-nitrato-methyl-7-nitro-1,4-benzodioxane) was chosen.

[3] = intravenous administration, dogs
[4] = intravenous, dogs, vs nicorandil

Row | SMILES | Max. change in mean blood pressure at diastole, Aortic ([1]; i.v, 30 μg/Kg) | Max. change in mean blood pressure at diastole, Pulmonary ([1]; i.v, 30 μg/Kg) | Max. change in mean blood pressure at diastole, Aortic ([1]; i.d, 30 μg/Kg) | Max. change in mean blood pressure at diastole, Pulmonary ([1]; i.d, 30 μg/Kg) | Max. change in mean blood pressure at diastole, Aortic ([1]; i.d, 100 μg/Kg) | Max. change in mean blood pressure at diastole, Pulmonary ([1]; i.d, 100 μg/Kg) | Max. change in mean blood pressure at diastole, Aortic ([1]; i.d, 300 μg/Kg) | Max. change in mean blood pressure at diastole, Pulmonary ([1]; i.d, 300 μg/Kg) | Max. change in mean blood pressure at diastole, Aortic ([1]; i.v, 3 μg/Kg) | Max. change in mean blood pressure at diastole, Pulmonary ([1]; i.v, 3 μg/Kg) | Max. change in mean blood pressure at diastole, Aortic ([1]; i.v, 10 μg/Kg) | Max. change in mean blood pressure at diastole, Pulmonary ([1]; i.v, 10 μg/Kg) | LD50 (Acute toxicity in mice; intravenous administration) | Max. increase in coronary blood flow (coronary blood flow; 3 μg/Kg, intravenous) | Max. increase in coronary blood flow (coronary blood flow; 10 μg/Kg, intravenous) | further results
1 | O=C(NCCO[N+](=O)[O-])c1cccnc1 [Nicorandil, N-[2-(nitroxy)ethyl]-3-pyridinecarboxamide] | -10.3 mm/Hg | -1 mm/Hg |  |  |  |  |  |  |  |  |  |  |  |  |  | Max. change in mean blood pressure at diastole, Aortic ([1]; i.v, 100 μg/Kg): -18.6 mm/Hg; Max. change in mean blood pressure at diastole, Pulmonary ([1]; i.v, 100 μg/Kg): -1.5 mm/Hg; Max. change in mean blood pressure at diastole, Aortic ([1]; i.v, 300 μg/Kg): -50.9 mm/Hg; Max. change in mean blood pressure at diastole, Pulmonary ([1]; i.v, 300 μg/Kg): -2.1 mm/Hg
2 | O=[N+]([O-])OCC(CO[N+](=O)[O-])O[N+](=O)[O-] [NG, nitroglycerin] | -40.0 mm/Hg | -3.7 mm/Hg | -1.7 mm/Hg | -0.7 mm/Hg | -3.3 mm/Hg | -1 mm/Hg | -10 mm/Hg | -1.7 mm/Hg | -21.7 mm/Hg | -0.8 mm/Hg | -33.3 mm/Hg | -3.0 mm/Hg | 10 to 15 mg/kg | 31.3% | 79.7% | Max. increase in coronary blood flow (coronary blood flow; 30 μg/Kg, intravenous): 165.0%
3 | O=[N+]([O-])OCC1COc2ccc([N+](=O)[O-])c(O)c2O1 (stereo not drawn) [Compound A, 8-hydroxy-2-nitratomethyl-7-nitro-1,4-benzodioxane] |  |  | -2 mm/Hg | -1.5 mm/Hg | -15 mm/Hg | -2.5 mm/Hg | -22 mm/Hg | -3.5 mm/Hg | -39.2 mm/Hg | -3.2 mm/Hg | -44.2 mm/Hg | -5.3 mm/Hg | 200 to 250 mg/kg | 84.7% | 127.6% | minimal effective dose ([2]; Rattus norvegicus, intravenous administration, read-out: dose as small as which caused a marked hypotension): 0.3 µg/kg; hypotension ([2]; intraduodenal administration): dose-dependent hypotension; hypotensive potency relative to ISDN ([2]; intraduodenal, vs ISDN): ~30 times; hypotensive potency relative to NG ([2]; intraduodenal, vs NG): ~10 times; hypotensive potency relative to nicorandil ([2]; intraduodenal, vs nicorandil): about 5 times; potency to cause 30% decrease in mean aortic pressure relative to ISDN ([2]; intravenous, vs ISDN): 250 times; potency to cause 30% decrease in mean aortic pressure relative to NG ([2]; intravenous, vs NG): 5 times; potency to cause 30% decrease in mean aortic pressure relative to nicorandil ([2]; intravenous, vs nicorandil): 300 times; Max. change in mean blood pressure at diastole, Aortic ([1]; i.v, 1 μg/Kg): -23 mm/Hg; Max. change in mean blood pressure at diastole, Pulmonary ([1]; i.v, 1 μg/Kg): -2.5 mm/Hg; reductions in aortic and pulmonary blood pressures ([1]; intraduodenal administration, dogs): dose-dependent reductions in aortic and pulmonary blood pressures; potency (reductions in aortic and pulmonary blood pressures) relative to NG ([1]; intraduodenal, dogs, vs NG): about 3 times; reduction of aortic and pulmonary blood pressure [1, 3]: reduced aortic and pulmonary blood pressure dose-dependently; vasodilating effect on the arterial system (reduction in aortic blood pressure) relative to nicorandil [1, 4]: about 3 times; vasodilating effect on the venous system (reduction in pulmonary blood pressure) relative to nicorandil [1, 4]: about 3 times; LD50 (Acute toxicity in mice; oral administration): 500 to 1000 mg/kg; Max. increase in coronary blood flow (coronary blood flow; 1 μg/Kg, intravenous): 52.0%; dose range causing a marked and dose-dependent increase in coronary blood flow (coronary blood flow; [3]): 1 to 10 µg/kg; effect on the coronary flow, potency relative to NG (coronary blood flow; intravenous, dogs, vs NG): about 3 times
